# Experimental data from ChEMBL document CHEMBL4651402, “Screening of ~5500 FDA-approved drugs and clinical candidates for anti-SARS-CoV-2 activity” (2021).
# Structures can show the parent of a compound that is named as a salt.
# Tested on: SARS-CoV-2
# Test: microbe, parasite or virus in culture
# Settings: Severe acute respiratory syndrome coronavirus 2, Vero C1008, 48 h
SMILES,IC50 [µM],IC50 (read-out: pIC50 (converted)) [µM]
N=C(N)NC(=N)N1CCOCC1 [MOROXYDINE],> 20,> 20
COC(=O)/C=C/C(=O)OC [DIMETHYL FUMARATE],> 20,> 20
C=C[C@]12CN(C)[C@@H]3[C@H]4CO[C@H](C[C@H]41)[C@]1(C(=O)Nc4ccccc41)[C@@H]32 [GELSEMINE],> 20,> 20
O=C(NCCO[N+](=O)[O-])c1cccnc1 [NICORANDIL],> 20,> 20
C=C1c2c(Cl)ccc(O)c2C(=O)C2=C(O)[C@]3(O)C(=O)C(C(N)=O)=C(O)[C@@H](N(C)C)[C@@H]3[C@@H](O)C12 (some centres undefined),> 20,> 20
"COc1ccc(-c2cc(=O)c3cc(OC)ccc3o2)cc1 [6,4'-DIMETHOXYFLAVONE]",> 20,> 20
CCCN1CCOC2c3cc(O)ccc3CCC21 (centres undefined),> 20,> 20
CCCC(CCC)C(N)=O [VALPROMIDE],> 20,> 20
CC(C)(C)c1ccc(CSc2cnn(C(C)(C)C)c(=O)c2Cl)cc1 [PYRIDABEN],> 20,> 20
CC(C)c1noc(N2CCC(COc3ccc(-c4ccc(S(C)(=O)=O)cc4)nc3)CC2)n1 [GSK-1292263],> 20,> 20
COc1cc2c(cc1OC)C(C)NCC2 (centres undefined),> 20,> 20
c1cncc(C2CCCCN2)c1 (stereo not drawn) [DL-ANABASINE],> 20,> 20
CC(=O)N[C@@H](C=O)[C@@H](O)[C@H](O)[C@H](O)CO,> 20,> 20
N[C@@H]1[C@H]2CN(c3nc4c(cc3F)c(=O)c(C(=O)O)cn4-c3ccc(F)cc3F)C[C@@H]12 [TROVAFLOXACIN],> 20,> 20
CCNC(=O)OC1CCN(c2nncc3cc(OC)c(OC)cc23)CC1 [CARBAZERAN],> 20,> 20
CCC(=O)OCC(=O)[C@@]1(OC(=O)CC)[C@@H](C)C[C@H]2[C@@H]3CCC4=CC(=O)C=C[C@]4(C)[C@@]3(F)[C@@H](O)C[C@@]21C [BETAMETHASONE DIPROPIONATE],> 20,> 20
CCN1CCCC(OC(=O)C(c2ccccc2)c2ccccc2)C1 (centres undefined) [PIPERIDOLATE],> 20,> 20
CC1(C)S[C@@H]2[C@H](NC(=O)[C@H](N)c3ccccc3)C(=O)N2[C@H]1C(=O)OC1OC(=O)c2ccccc21 (some centres undefined) [TALAMPICILLIN],> 20,> 20
NS(=O)(=O)c1cc2c(cc1Cl)N=CNS2(=O)=O [CHLOROTHIAZIDE],> 20,> 20
CN1C(=O)COc2c(C(=O)NC3CN4CCC3CC4)cc(Cl)cc21 (centres undefined) [AZASETRON],> 20,> 20
O=C1O[C@H](CO)[C@@H](O)[C@H](O)[C@H]1O [GLUCONOLACTONE],> 20,> 20

SMILES,IC50 [µM],IC50 (read-out: pIC50 (converted)) [µM]
C[S+]([O-])c1ccc(-c2nc(-c3ccc(F)cc3)c(-c3ccncc3)[nH]2)cc1 (centres undefined) [SB-203580],> 20,> 20
N=C(N)NC(=N)NCCc1ccccc1 [PHENFORMIN],> 20,> 20
Cc1ccc([C@@H]2O[C@H](CO)[C@@H](O)[C@H](O)[C@H]2O)cc1Cc1ccc(-c2ccc(F)cc2)s1 [CANAGLIFLOZIN ANHYDROUS],> 20,> 20
COc1ccc2c(c1)C(C(=O)N(Cc1ccc(N(C)C)cc1)c1ccc(C(C)C)cc1)CCC2 (centres undefined),> 20,> 20
CCOc1cc2c(c(F)c1OCC)C(=N)N(CC(=O)c1cc(N3CCOCC3)c(OC)c(C(C)(C)C)c1)C2 [ATOPAXAR],> 20,> 20
c1ccc2ncccc2c1 [QUINOLINE],> 20,> 20
CC(Cc1ccc(C(C)(C)C)cc1)CN1CCCCC1 (centres undefined) [FENPROPIDIN],> 20,> 20
Cn1c(=O)c2[nH]c(Br)nc2n(C)c1=O [PAMABROM],> 20,> 20
COC(=O)C1=C(C)NC(C)=C(C(=O)O[C@@H]2CCN(Cc3ccccc3)C2)[C@H]1c1cccc([N+](=O)[O-])c1,> 20,> 20
C#C[C@]1(O)CC[C@H]2[C@@H]3CCC4=C(CCC(=O)C4)[C@H]3CC[C@@]21C [NORETHYNODREL],> 20,> 20
Cc1cccc(-c2nn3c(c2-c2ccnc4ccc(C(N)=O)cc24)CCC3)n1 [GALUNISERTIB],> 20,> 20
CC1(C)O[C@@H]2C[C@H]3[C@@H]4C[C@H](F)C5=CC(=O)CC[C@]5(C)[C@H]4[C@@H](O)C[C@]3(C)[C@]2(C(=O)CO)O1 [FLURANDRENOLIDE],> 20,> 20
COc1ccc(OC)c(C(O)C(C)N)c1 (centres undefined) [METHOXAMINE],> 20,> 20
COc1ccc2c(c1OC)CN1CCc3cc4c(cc3C1C2)OCO4 (centres undefined) [TETRAHYDROBERBERINE],> 20,> 20
CC(=O)O[C@H]1C[C@@H]2CC[C@@H]3[C@H](CC[C@@]4(C)[C@H]3C[C@H]([N+]3(C)CCCCC3)[C@@H]4OC(C)=O)[C@@]2(C)C[C@@H]1N1CCCCC1 [VECURONIUM],> 20,> 20
Clc1ccc(C(Cn2ccnc2)OCc2csc3c(Cl)cccc23)c(Cl)c1 (centres undefined) [SERTACONAZOLE],> 20,> 20
CC12CCC3c4ccc(OS(=O)(=O)O)cc4CCC3C1CCC2O (centres undefined),> 20,> 20
Cn1c(=O)n(-c2ccc(C(C)(C)C#N)cc2)c2c3cc(-c4cnc5ccccc5c4)ccc3ncc21 [DACTOLISIB],> 20,> 20
CNc1ccc(-c2ccc3cc(OC[C@H](O)CF)ccc3n2)cn1 [THK-5351],> 20,> 20
COc1nccnc1NS(=O)(=O)c1ccc(N)cc1,> 20,> 20
NC(=O)C(c1ccccc1)(c1ccc(F)cc1)c1ccc(F)cc1 [SENICAPOC],> 20,> 20

SMILES,IC50 [µM],IC50 (read-out: pIC50 (converted)) [µM]
C[C@]12CCC(=O)C=C1CC[C@@H]1[C@@H]2CC[C@]2(C)C(=O)CC[C@@H]12 [ANDROSTENEDIONE],> 20,> 20
COc1cccc(OC)c1-c1ccc(C[C@H](NC(=O)c2c(Cl)cccc2Cl)C(=O)O)cc1,> 20,> 20
O=C1c2ccccc2C(=O)C1c1ccc(Br)cc1 [BROMINDIONE],> 20,> 20
CC(N)CCCC(C)(C)O (centres undefined) [HEPTAMINOL],> 20,> 20
O=C(O)[C@H]1/C(=C/CO)O[C@@H]2CC(=O)N21 [CLAVULANIC ACID],> 20,> 20
CC1CCN(CCCC(=O)c2ccc(F)cc2)CC1 [MELPERONE],> 20,> 20
C[C@H](Cc1ccccc1)N(C)Cc1ccco1,> 20,> 20
CN[C@@H]1[C@@H](O[C@H]2O[C@H](CO)[C@@H](N)[C@H](O)[C@H]2O)O[C@H]2C[C@@H](N)[C@@H](O[C@H]3[C@H](O)[C@@H](O)[C@H](N)C[C@@H]3N)O[C@@H]2[C@@H]1O,> 20,> 20
CCCCCC1C(=O)N2C=C(c3ccccc3)c3ccccc3N2C1=O (centres undefined) [CINTAZONE],> 20,> 20
NNC(=O)c1ccncc1 [ISONIAZID],> 20,> 20
COc1cc(/C=C/C(=O)O)ccc1O [FERULATE],> 20,> 20
OCC(O)CN1CCN(c2ccccc2)CC1 (centres undefined) [DROPROPIZINE],> 20,> 20
CC(C)NCC(O)c1cc(O)cc(O)c1 (centres undefined),> 20,> 20
NCCNCCNCCN [TRIENTINE],> 20,> 20
CNC1=Nc2ccc(Cl)cc2C(c2ccccc2)=[N+]([O-])C1 [CHLORDIAZEPOXIDE],> 20,> 20
CCCC(C)C1(CC)C(=O)NC(=O)NC1=O (centres undefined) [PENTOBARBITAL],> 20,> 20
CCN1/C(=C/C=C/C=C/c2sc3ccccc3[n+]2CC)Sc2ccccc21 [DITHIAZANINE IODIDE],> 20,> 20
NS(=O)(=O)c1cc2c(cc1Cl)NC(CC1CCCC1)NS2(=O)=O (centres undefined) [CYCLOPENTHIAZIDE],> 20,> 20
O=C1NCCN1CCN1CCC(c2cn(-c3ccc(F)cc3)c3ccc(Cl)cc23)CC1 [SERTINDOLE],> 20,> 20
CN1CCN(C2Cc3ccccc3Sc3ccc(Cl)cc32)CC1 (centres undefined) [CLOROTEPINE],> 20,> 20
